# Test system: TUSC3 expression in the hypermethylated MZ6 cell line
# Assay: Restoration of TUSC3 expression by DNA demethylation in ovarian cancer cell lines (real time RT-PCR)
# Assay type: cell-based, human
# Conditions: 72-hour treatment
# Description: In addition, 32 ovarian cancer cell lines were studied, which were started from ovarian cancer tissue samples of 28 patients and cultivated as described (Mobus V1 Gerharz C D, Press U, et al, Morphological, immunohistochemical and biochemical characterization of 6 newly established human ovarian carcinoma cell lines. Int J Cancer. 1992; 52:76-84).
# For bisulfite treatment, 1 μg genomic DNA was digested with the restriction enzymes Hind III and Xba I, precipitated, dissolved and denatured for 20 minutes in 0.35 M NaOH. Then, the DNA was treated in 8 cycles (2 hrs. 75° C. and 1 min. 95° C.) with 1.75 M sodium bisulfite, 5.23 M urea and 0.52 mM hydroquinone in a PCR cycler. Using the QIAEX II Gel Extraction Kit (Qiagen, Hilden, Germany), the DNA was cleaned and the reaction was ended with 0.32 M NaOH (20 min. 37° C.). Finally, the DNA was precipitated with 1 μl glycogen with NH4 acetate EtOH as the carrier, rinsed with 70% EtOH and dissolved in 40 μl H2O. […] The PCR products were analyzed on 3% agarose gel, stained with ethidium bromide. […] DNA demethylation of the cancer cell lines was carried out by a 72-hour treatment with 1 and 2.5 μM 5-aza-deoxycytidine (Sigma-Aldrich, St. Louis, Mo., USA) in cell culture medium, and the relative TUSC3 expression was evaluated by real time RT-PCR as described below. […]
compound,measurement,setting,value
Nc1ncn([C@H]2C[C@H](O)[C@@H](CO)O2)c(=O)n1 [5-aza-deoxycytidine],"TUSC3 expression, times greater than sham-treated samples (relative to B-2-microglobulin)","2.5 μM, MZ6 cell line, sham-treated below detection limit, mean of three experiments",at least 9.5 times
same,Restoration of TUSC3 expression,"1 and 2.5 μM, hypermethylated MZ6 cell line, concentration-dependent",restoration of TUSC3 expression

# — patent US20090298068A1, “METHOD AND TEST KIT FOR THE DIAGNOSIS AND/OR MAKING PREDICTIONS ABOUT AND/OR FOR THE ASSESSMENT OF THE EFFICACY OF THERAPEUTIC AGENTS FOR THE TREATMENT OF OVARIAN CANCER AND METHOD OF PLANNING A REGIMEN FOR THE TREATMENT OF OVARIAN CANCER” (priority 2006, published 2009)
